Data as given in PubChem BioAssay AID330 (DTP/NCI, 2004).
Where “and” joins values, the source holds several entries; their conditions need not be identical. Equal values may be shown once. Toxic doses and inconclusive results are not listed.

System: P388 leukemia ip, CD2F1 mice, survival T/C
Assay: NCI In Vivo Anticancer Drug Screen. Data for tumor model P388 Leukemia (intraperitoneal) in CD2F1 (CDF1) mice
Settings: endpoint: median survival time, higher = longer survival
Procedure, shortened: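 Mice carrying the transplanted tumor received test compound or vehicle. Survival was recorded in each group, and the value is the treated-group measurement divided by that of the vehicle-treated control group.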

[1] = dose: 100.0 mg/kg/injection, schedule: Q04DX002 (ip), vehicle: saline with Tween-80
[2] = dose: 200.0 mg/kg/injection, schedule: Q04DX002 (ip), vehicle: saline with Tween-80
[3] = dose: 60.0 mg/kg/injection, schedule: Q01DX005 (ip), vehicle: saline
[4] = dose: 120.0 mg/kg/injection, schedule: Q01DX005 (ip), vehicle: saline
[5] = dose: 240.0 mg/kg/injection, schedule: Q01DX005 (ip), vehicle: saline
[6] = dose: 100.0 mg/kg/injection, schedule: Q04DX003 (ip), vehicle: saline with Tween-80
[7] = dose: 200.0 mg/kg/injection, schedule: Q04DX003 (ip), vehicle: saline with Tween-80
[8] = dose: 60.0 mg/kg/injection, schedule: Q01DX005 (ip), vehicle: saline with Tween-80
[9] = dose: 120.0 mg/kg/injection, schedule: Q01DX005 (ip), vehicle: saline with Tween-80
[10] = dose: 240.0 mg/kg/injection, schedule: Q01DX005 (ip), vehicle: saline with Tween-80
[11] = dose: 50.0 mg/kg/injection, schedule: Q01DX009 (ip), vehicle: saline with Tween-80
[12] = dose: 100.0 mg/kg/injection, schedule: Q01DX009 (ip), vehicle: saline with Tween-80
[13] = dose: 200.0 mg/kg/injection, schedule: Q01DX009 (ip), vehicle: saline with Tween-80
[14] = dose: 50.0 mg/kg/injection, schedule: Q01DX005 (ip), vehicle: Klucel (hydroxypropylcellulose) (HPC)
[15] = dose: 100.0 mg/kg/injection, schedule: Q01DX005 (ip), vehicle: Klucel (hydroxypropylcellulose) (HPC)
[16] = dose: 200.0 mg/kg/injection, schedule: Q01DX005 (ip), vehicle: Klucel (hydroxypropylcellulose) (HPC)
[17] = dose: 3.13 mg/kg/injection, schedule: Q01DX009 (ip), vehicle: distilled water + Tween-80
[18] = dose: 6.25 mg/kg/injection, schedule: Q01DX009 (ip), vehicle: distilled water + Tween-80
[19] = dose: 25.0 mg/kg/injection, schedule: Q01DX009 (ip), vehicle: saline with Tween-80

CC(C)=CCc1ccc2c(c1)CCCN2C
T/C [1]: 108 % of control
T/C [2]: 108 % of control

CC1C2=C(C(=O)N1Cc1ccccc1)C(C1OC(COC(=O)c3ccccc3)C(OC(=O)c3ccccc3)C1OC(=O)c1ccccc1)C(=O)N(C)C2=O (centres undefined)
T/C (dose: 39.0 mg/kg/injection, schedule: Q01DX009 (ip), vehicle: Klucel (hydroxypropylcellulose) (HPC)): 97 % of control
T/C (dose: 78.0 mg/kg/injection, schedule: Q01DX009 (ip), vehicle: Klucel (hydroxypropylcellulose) (HPC)): 99 % of control
T/C (dose: 156.0 mg/kg/injection, schedule: Q01DX009 (ip), vehicle: Klucel (hydroxypropylcellulose) (HPC)): 95 % of control

O=C(NCCSCCSCCSCCNC(=O)Oc1ccccc1)Oc1ccccc1
T/C (dose: 100.0 mg/kg/injection, schedule: Q01DX001 (ip), vehicle: Klucel (hydroxypropylcellulose) (HPC)): 92 % of control
T/C (dose: 200.0 mg/kg/injection, schedule: Q01DX001 (ip), vehicle: Klucel (hydroxypropylcellulose) (HPC)): 91 % of control

COc1ccc(C2=C(Cl)C(=O)N(c3ccccn3)C(=O)C2(Cl)Cl)cc1
T/C (dose: 100.0 mg/kg/injection, schedule: Q04DX003 (ip), vehicle: Klucel (hydroxypropylcellulose) (HPC)): 98 % of control
T/C (dose: 200.0 mg/kg/injection, schedule: Q04DX003 (ip), vehicle: Klucel (hydroxypropylcellulose) (HPC)): 106 % of control
T/C (dose: 400.0 mg/kg/injection, schedule: Q04DX003 (ip), vehicle: Klucel (hydroxypropylcellulose) (HPC)): 100 % of control

NC(CCC(=O)NC(CS(=O)(=O)O)C(=O)O)C(=O)O (centres undefined)
T/C [3]: 108 % of control
T/C [4]: 108 % of control
T/C [5]: 108 % of control

CC(=O)CC(=O)OCc1ccccc1
T/C [6]: 100 % of control
T/C [7]: 100 % of control
T/C (dose: 400.0 mg/kg/injection, schedule: Q04DX003 (ip), vehicle: saline with Tween-80): 100 % of control

CCCCCCCCCCCCSCCSCCC
T/C (dose: 50.0 mg/kg/injection, schedule: Q01DX009 (ip), vehicle: saline): 90 % of control
T/C (dose: 100.0 mg/kg/injection, schedule: Q01DX009 (ip), vehicle: saline): 100 % of control
T/C (dose: 200.0 mg/kg/injection, schedule: Q01DX009 (ip), vehicle: saline): 90 % of control

CC1OC(C)(c2ccc(Cl)c(O)c2)OC1C (centres undefined)
T/C [8]: 100 % of control
T/C [9]: 102 % of control
T/C [10]: 102 % of control

Cc1ccc(S(=O)(=O)C(=O)N2CCN(C(=O)S(=O)(=O)c3ccc(C)cc3)CC2)cc1
T/C [11]: 100 % of control
T/C [12]: 107 % of control
T/C [13]: 109 % of control

CN(C)CCNC(=O)c1nn(-c2ccccc2)c2c1CSc1ccccc1-2
T/C [1]: 100 % of control
T/C [2]: 105 % of control
T/C (dose: 400.0 mg/kg/injection, schedule: Q04DX002 (ip), vehicle: saline with Tween-80): 103 % of control

COC1/C=C/OC2(C)Oc3c(C)c(O)c4c(O)c(c(/C=N\N(C)C56CC7CC(CC(C7)C5)C6)c(O)c4c3C2=O)NC(=O)C(C)=C/C=C/C(C)C(O)C(C)C(O)C(C)C(OC(C)=O)C1C (centres undefined)
T/C (dose: 60.0 mg/kg/injection, schedule: Q01DX005 (ip), vehicle: Klucel (hydroxypropylcellulose) (HPC)): 93 % of control
T/C (dose: 120.0 mg/kg/injection, schedule: Q01DX005 (ip), vehicle: Klucel (hydroxypropylcellulose) (HPC)): 96 % of control
T/C (dose: 240.0 mg/kg/injection, schedule: Q01DX005 (ip), vehicle: Klucel (hydroxypropylcellulose) (HPC)): 102 % of control

Cl/N=C1C=C/C(=N\Cl)C=C/1Cl
T/C (dose: 6.25 mg/kg/injection, schedule: Q01DX005 (ip), vehicle: saline with Tween-80): 110 % of control
T/C (dose: 12.5 mg/kg/injection, schedule: Q01DX005 (ip), vehicle: saline with Tween-80): 110 % of control
T/C (dose: 25.0 mg/kg/injection, schedule: Q01DX005 (ip), vehicle: saline with Tween-80): 107 % of control

Nc1cc(=O)[nH]c(=S)n1-c1ccc(Br)cn1
T/C (dose: 100.0 mg/kg/injection, schedule: Q01DX001 (ip), vehicle: saline with Tween-80): 90 % of control
T/C (dose: 200.0 mg/kg/injection, schedule: Q01DX001 (ip), vehicle: saline with Tween-80): 100 % of control
T/C (dose: 400.0 mg/kg/injection, schedule: Q01DX001 (ip), vehicle: saline with Tween-80): 90 % of control

CCOC(=O)c1cc2c(nn3c(C)cccc23)n(CC)c1=N
T/C (dose: 3.12 mg/kg/injection, schedule: Q01DX001 (ip), vehicle: saline): 100 % of control and 101 % of control
T/C (dose: 6.25 mg/kg/injection, schedule: Q01DX001 (ip), vehicle: saline): 101 % of control and 105 % of control
T/C (dose: 12.5 mg/kg/injection, schedule: Q01DX001 (ip), vehicle: saline): 100 % of control and 98 % of control
T/C (dose: 25.0 mg/kg/injection, schedule: Q01DX001 (ip), vehicle: saline): 103 % of control and 93 % of control

COCC#CC(C)(C)OC
T/C [3]: 95 % of control
T/C [4]: 95 % of control
T/C [5]: 99 % of control

COc1cc2c[n+](C)c3c4cc(OC)c(OCc5ccccc5)cc4c(OCc4ccccc4)cc3c2cc1OC
T/C (dose: 3.12 mg/kg/injection, schedule: Q01DX005 (ip), vehicle: Klucel (hydroxypropylcellulose) (HPC)): 100 % of control
T/C (dose: 6.25 mg/kg/injection, schedule: Q01DX005 (ip), vehicle: Klucel (hydroxypropylcellulose) (HPC)): 100 % of control
T/C (dose: 12.5 mg/kg/injection, schedule: Q01DX005 (ip), vehicle: Klucel (hydroxypropylcellulose) (HPC)): 98 % of control

C[Si]1(C)N(c2ccccc2)[Si](C)(c2ccccc2)N1c1ccccc1
T/C [14]: 94 % of control
T/C [15]: 111 % of control
T/C [16]: 111 % of control

O=C1C=C(Br)C(=O)C(Br)=C1
T/C (dose: 1.56 mg/kg/injection, schedule: Q01DX009 (ip), vehicle: distilled water + Tween-80): 101 % of control
T/C [17]: 95 % of control
T/C [18]: 100 % of control

Cc1ccc(-c2cc(C(=O)NN)c(C#N)c(=O)[nH]2)cc1
T/C (dose: 60.0 mg/kg/injection, schedule: Q01DX005 (ip), vehicle: suspension in saline): 97 % of control
T/C (dose: 120.0 mg/kg/injection, schedule: Q01DX005 (ip), vehicle: suspension in saline): 100 % of control
T/C (dose: 240.0 mg/kg/injection, schedule: Q01DX005 (ip), vehicle: suspension in saline): 100 % of control

CCCCCCCCCCCCCCC(O)c1cccc(OC)c1 (centres undefined)
T/C (dose: 7.5 mg/kg/injection, schedule: Q01DX009 (ip), vehicle: saline with Tween-80): 109 % of control
T/C (dose: 15.0 mg/kg/injection, schedule: Q01DX009 (ip), vehicle: saline with Tween-80): 113 % of control
T/C (dose: 30.0 mg/kg/injection, schedule: Q01DX009 (ip), vehicle: saline with Tween-80): 109 % of control

O=C(NCc1ccccc1)OCc1c(COC(=O)NCc2ccccc2)c(-c2ccc(Cl)c(Cl)c2)n2c1CCC2
T/C [17]: 105 % of control
T/C [18]: 151 % of control
T/C (dose: 12.5 mg/kg/injection, schedule: Q01DX009 (ip), vehicle: distilled water + Tween-80): 158 % of control and 161 % of control
T/C (dose: 25.0 mg/kg/injection, schedule: Q01DX009 (ip), vehicle: distilled water + Tween-80): 160 % of control and 174 % of control
T/C (dose: 50.0 mg/kg/injection, schedule: Q01DX009 (ip), vehicle: distilled water + Tween-80): 164 % of control and 182 % of control
T/C (dose: 100.0 mg/kg/injection, schedule: Q01DX009 (ip), vehicle: distilled water + Tween-80): 194 % of control and 196 % of control

CCOc1ccc2nc(SCCl)sc2c1
T/C [19]: 101 % of control
T/C [11]: 99 % of control
T/C [12]: 91 % of control

CN(C)CCCN1CN(CCCN(C)C)CC(C)(C)C1
T/C [11]: 103 % of control
T/C [12]: 106 % of control

COc1ccc(C=NC(C)(C)CO)cc1OC
T/C (dose: 25.0 mg/kg/injection, schedule: Q01DX005 (ip), vehicle: Klucel (hydroxypropylcellulose) (HPC)): 100 % of control
T/C [14]: 109 % of control
T/C [15]: 101 % of control
T/C [16]: 100 % of control

CC1(c2ccccc2)Nc2ccccc2C1=Nc1ccccc1 (centres undefined)
T/C (dose: 50.0 mg/kg/injection, schedule: Q04DX003 (ip), vehicle: saline with Tween-80): 99 % of control
T/C [6]: 96 % of control
T/C [7]: 100 % of control

C[Si](C)(C)Cc1ccccc1C(=O)O
T/C [8]: 100 % of control
T/C [9]: 103 % of control
T/C [10]: 94 % of control

Cc1cc(O)c(C2(C)CCC3CC32C)cc1Br (centres undefined)
T/C [19]: 97 % of control
T/C [11]: 105 % of control
T/C [12]: 107 % of control
T/C [13]: 114 % of control
